According to patent publication US20230233569A1 (Revolution Medicines, Inc., priority 2020, published 2023):
Where two headings read alike, the source gives them in different places.

Experiments:
NCI-H358 (K-Ras G12C) = assay: CellTiter-Glo cell viability assay; type: cell-based; settings: Homo sapiens, NCI-H358, 120 h
Summary of the method: (§1)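 Percent-of-DMSO luminescence values (CellTiter-Glo, day 5, plates equilibrated ~30 minutes at ambient temperature) were curve-fitted using a 4-parameter logistic equation; compounds had been added straight into wells containing the cells.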

AsPC-1 (K-Ras G12D) [1] = assay: CellTiter-Glo cell viability assay; type: cell-based; settings: Homo sapiens, ASPC1, 120 h
Summary of the method: as §1

KRAS G13D = KRAS G13D (Homo sapiens, UniProt P01116+P62937, G13D); assay: Ras-Raf disruption / FRET / MOA assay (BRAF RBD); type: biochemical; settings: with Cyclophilin A
Summary of the method: (§2)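 Compound-induced Ras–Cyclophilin A ternary complex disrupting BRAF RBD binding, read as IC50 from reduced TR-FRET ratio relative to DMSO. Final: Ras-GMPPNP 12.5 nM, BRAF RBD 50 nM, Cyclophilin A 25 μM, top compound 30 μM (3-fold, 10 points); 3 h at 25 °C, then 1.5 h with detection antibodies.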

KRAS WT = KRAS WT (Homo sapiens, UniProt P01116+P62937); assay: Ras-Raf disruption / FRET / MOA assay (BRAF RBD); type: biochemical; settings: with Cyclophilin A
Summary of the method: as §2

KRAS G13C = KRAS G13C (Homo sapiens, UniProt P01116+P62937, G13C); assay: Ras-Raf disruption / FRET / MOA assay (BRAF RBD); type: biochemical; settings: with Cyclophilin A
Summary of the method: as §2

KRAS G12D = KRAS G12D (Homo sapiens, UniProt P01116+P62937, G12D); assay: Ras-Raf disruption / FRET / MOA assay (BRAF RBD); type: biochemical; settings: with Cyclophilin A
Summary of the method: as §2

KRAS G12S = KRAS G12S (Homo sapiens, UniProt P01116+P62937, G12S); assay: Ras-Raf disruption / FRET / MOA assay (BRAF RBD); type: biochemical; settings: with Cyclophilin A
Summary of the method: as §2

NRAS G12C = NRAS G12C (Homo sapiens, UniProt P01111+P62937, G12C); assay: Ras-Raf disruption / FRET / MOA assay (BRAF RBD); type: biochemical
Summary of the method: as §2

KRAS G12V = KRAS G12V (Homo sapiens, UniProt P01116+P62937, G12V); assay: Ras-Raf disruption / FRET / MOA assay (BRAF RBD); type: biochemical; settings: with Cyclophilin A
Summary of the method: as §2

KRAS G12C = KRAS G12C (Homo sapiens, UniProt P01116+P62937, G12C); assay: Ras-Raf disruption / FRET / MOA assay (BRAF RBD); type: biochemical; settings: with Cyclophilin A
Summary of the method: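 TR-FRET read-out after 1.5 h with anti-His Eu-W1024 (10 nM) and anti-GST APC (50 nM), following 3 h at 25 °C of compound (top 30 μM, 3-fold, 10 points) with 25 μM Cyclophilin A, 12.5 nM GMPPNP-loaded K-Ras G12C and 50 nM BRAF RBD; IC50 reported.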

AsPC-1 (K-Ras G12D) [2] = assay: Potency assay: pERK; type: cell-based; settings: Homo sapiens
[3] = read-out: H358 Cell Viability assay data IC50, K-Ras G12C, 5-day treatment
[4] = read-out: AsPC-1 Cell Viability assay data IC50, K-Ras G12D, 5-day treatment
[5] = KRAS G13D FRET data IC50, Ras-Raf disruption
[6] = KRAS WT FRET data IC50, Ras-Raf disruption
[7] = KRAS G13C FRET data IC50, Ras-Raf disruption
[8] = KRAS G12D FRET data IC50, Ras-Raf disruption
[9] = KRAS G12S FRET data IC50, Ras-Raf disruption
[10] = NRAS G12C FRET data IC50, NRAS G12C
[11] = KRAS G12V FRET data IC50, Ras-Raf disruption
[12] = KRAS G12C FRET data IC50, Ras-Raf disruption
[13] = K-Ras G12C, 5-day treatment, read-out: H358 Cell Viability assay data IC50
[14] = K-Ras G12D, 5-day treatment, read-out: AsPC-1 Cell Viability assay data IC50
[15] = Ras-Raf disruption, read-out: KRAS G13D FRET data IC50
[16] = Ras-Raf disruption, read-out: KRAS WT FRET data IC50
[17] = Ras-Raf disruption, read-out: KRAS G13C FRET data IC50
[18] = Ras-Raf disruption, read-out: KRAS G12D FRET data IC50
[19] = Ras-Raf disruption, read-out: KRAS G12S FRET data IC50
[20] = NRAS G12C, read-out: NRAS G12C FRET data IC50
[21] = Ras-Raf disruption, read-out: KRAS G12V FRET data IC50
[22] = Ras-Raf disruption, read-out: KRAS G12C FRET data IC50
[23] = ASPC1, AsPC-1 KRAS G12D, read-out: pERK EC50

Chain of NRAS G12C (P01111 whole entry G12C): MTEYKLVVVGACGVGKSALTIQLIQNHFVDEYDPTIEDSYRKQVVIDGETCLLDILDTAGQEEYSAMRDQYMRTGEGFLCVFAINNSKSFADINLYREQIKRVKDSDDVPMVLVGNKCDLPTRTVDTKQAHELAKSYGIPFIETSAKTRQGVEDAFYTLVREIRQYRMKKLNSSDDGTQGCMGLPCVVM
Chain of NRAS G12C (P62937 whole entry): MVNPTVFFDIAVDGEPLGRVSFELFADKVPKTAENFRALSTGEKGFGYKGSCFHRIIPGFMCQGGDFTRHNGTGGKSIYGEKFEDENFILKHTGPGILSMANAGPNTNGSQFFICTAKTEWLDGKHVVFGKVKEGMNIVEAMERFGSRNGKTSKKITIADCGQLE
Chain of KRAS G12S (P01116 1-169 isoform P01116-2 G12S limits assumed): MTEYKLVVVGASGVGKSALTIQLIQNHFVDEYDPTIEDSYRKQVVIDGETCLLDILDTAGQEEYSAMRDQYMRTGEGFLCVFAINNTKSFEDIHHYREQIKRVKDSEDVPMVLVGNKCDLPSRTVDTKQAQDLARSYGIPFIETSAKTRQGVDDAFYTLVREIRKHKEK
Chain of KRAS G12S (P62937 whole entry): as the sequence (P62937 whole entry) above
Chain of KRAS G12C (P01116 1-169 isoform P01116-2 G12C limits assumed): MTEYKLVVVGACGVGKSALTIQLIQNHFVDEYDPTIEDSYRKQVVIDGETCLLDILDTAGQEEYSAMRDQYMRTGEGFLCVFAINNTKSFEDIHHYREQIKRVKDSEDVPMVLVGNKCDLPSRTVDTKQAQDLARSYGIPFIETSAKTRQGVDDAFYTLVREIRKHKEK
Chain of KRAS G12C (P62937 whole entry): as the sequence (P62937 whole entry) above
Chain of KRAS G12D (P01116 1-169 isoform P01116-2 G12D limits assumed): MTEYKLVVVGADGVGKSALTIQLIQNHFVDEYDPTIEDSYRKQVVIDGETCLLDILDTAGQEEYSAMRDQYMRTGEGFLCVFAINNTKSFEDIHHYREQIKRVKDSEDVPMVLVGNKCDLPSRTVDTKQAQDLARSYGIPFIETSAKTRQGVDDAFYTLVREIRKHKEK
Chain of KRAS G12D (P62937 whole entry): as the sequence (P62937 whole entry) above
Chain of KRAS G13C (P01116 1-169 isoform P01116-2 G13C limits assumed): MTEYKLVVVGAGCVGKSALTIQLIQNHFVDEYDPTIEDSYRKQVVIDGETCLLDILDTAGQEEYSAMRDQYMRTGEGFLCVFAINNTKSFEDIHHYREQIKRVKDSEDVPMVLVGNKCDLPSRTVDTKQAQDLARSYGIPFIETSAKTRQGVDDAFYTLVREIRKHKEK
Chain of KRAS G13C (P62937 whole entry): as the sequence (P62937 whole entry) above
Chain of KRAS G13D (P01116 1-169 isoform P01116-2 G13D limits assumed): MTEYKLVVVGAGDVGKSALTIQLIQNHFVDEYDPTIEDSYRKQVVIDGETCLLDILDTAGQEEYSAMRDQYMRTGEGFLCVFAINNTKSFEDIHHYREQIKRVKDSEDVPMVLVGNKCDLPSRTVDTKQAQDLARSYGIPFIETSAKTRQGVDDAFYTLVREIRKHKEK
Chain of KRAS G13D (P62937 whole entry): as the sequence (P62937 whole entry) above
Chain of KRAS WT (P01116 1-169 isoform P01116-2 limits assumed): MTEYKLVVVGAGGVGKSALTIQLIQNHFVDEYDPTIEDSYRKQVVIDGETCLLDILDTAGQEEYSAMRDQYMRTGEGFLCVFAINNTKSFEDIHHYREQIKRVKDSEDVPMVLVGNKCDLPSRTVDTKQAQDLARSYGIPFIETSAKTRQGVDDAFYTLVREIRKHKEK
Chain of KRAS WT (P62937 whole entry): as the sequence (P62937 whole entry) above
Chain of KRAS G12V (P01116 1-169 isoform P01116-2 G12V limits assumed): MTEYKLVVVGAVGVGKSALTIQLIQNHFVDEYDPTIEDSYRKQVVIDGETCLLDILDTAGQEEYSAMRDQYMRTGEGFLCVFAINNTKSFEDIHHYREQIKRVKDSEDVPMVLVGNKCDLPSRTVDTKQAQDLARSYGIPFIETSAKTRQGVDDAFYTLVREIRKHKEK
Chain of KRAS G12V (P62937 whole entry): as the sequence (P62937 whole entry) above

Structure (SMILES) | IC50 (NCI-H358 (K-Ras G12C); [3]) [nM] | IC50 (AsPC-1 (K-Ras G12D) [1]; [4]) [nM] | IC50 (KRAS G13D; [5]) [nM] | IC50 (KRAS WT; [6]) [nM] | IC50 (KRAS G13C; [7]) [nM] | IC50 (KRAS G12D; [8]) [nM] | IC50 (KRAS G12S; [9]) [nM] | IC50 (NRAS G12C; [10]) [nM] | IC50 (KRAS G12V; [11]) [nM] | IC50 (KRAS G12C; [12]) [nM] | EC50 (AsPC-1 (K-Ras G12D) [2]; ASPC1, read-out: pERK EC50) [nM] | IC50 (NCI-H358 (K-Ras G12C); [13]) [nM] | IC50 (AsPC-1 (K-Ras G12D) [1]; [14]) [nM] | EC50 (AsPC-1 (K-Ras G12D) [2]; [23]) [nM] | further results
CCn1c(-c2cnccc2COC)c2c3cc(ccc31)-c1cc(O)cc(c1)C[C@H](NC(=O)[C@H](C(C)C)N(C)C(=O)CN(C)C(=O)[C@@H]1N[C@@H]1C(=O)OC)C(=O)N1CCC[C@H](N1)C(=O)OCC(C)(C)C2 [Example 49] | 1000 to 10000 | 1000 to 10000 | 100 to 1000 | 100 to 1000 | 10 to 100 | 100 to 1000 | 100 to 1000 | 10 to 100 | 100 to 1000 | 10 to 100 | < 5000 |  |  |  | 
CCn1c(-c2cccnc2[C@H](C)OC)c2c3cc(ccc31)-c1cc(O)cc(c1)C[C@H](NC(=O)[C@H](C1CCCC1)N(C)C(=O)[C@H]1CCN(C[C@H]3CN3)C1=O)C(=O)N1CCC[C@H](N1)C(=O)OCC(C)(C)C2 [Example 58] |  |  |  |  |  |  |  |  |  |  |  | < 10 | 100 to 1000 | < 5000 | IC50 (KRAS G13D; [15]): 10 to 100 nM; IC50 (KRAS WT; [16]): 10 to 100 nM; IC50 (KRAS G13C; [17]): 10 to 100 nM; IC50 (KRAS G12D; [18]): 100 to 1000 nM; IC50 (KRAS G12S; [19]): 10 to 100 nM; IC50 (NRAS G12C; [20]): < 10 nM; IC50 (KRAS G12V; [21]): 10 to 100 nM; IC50 (KRAS G12C; [22]): < 10 nM
CCn1c(-c2cccnc2[C@H](C)OC)c2c3cc(ccc31)-c1cc(O)cc(c1)C[C@H](NC(=O)[C@H](C(C)C)N(C)C(=O)CN(C)C(=O)[C@@H]1N[C@H]1COC)C(=O)N1CCC[C@H](N1)C(=O)OCC(C)(C)C2 [Example 85] | 10 to 100 | 1000 to 10000 | 10 to 100 | 10 to 100 | < 10 | 100 to 1000 | 10 to 100 | 10 to 100 | 10 to 100 | 10 to 100 | < 5000 |  |  |  | 
CCn1c(-c2cccnc2[C@H](C)OC)c2c3cc(ccc31)-c1cc(O)cc(c1)C[C@H](NC(=O)[C@H](C(C)C)N(C)C(=O)CN(C)C(=O)C1CN1CCOC)C(=O)N1CCC[C@H](N1)C(=O)OCC(C)(C)C2 (stereo partly drawn) [Example 90] | < 10 | 100 to 1000 | 100 to 1000 | 10 to 100 | 10 to 100 | 100 to 1000 | 10 to 100 | < 10 | 10 to 100 | < 10 | < 5000 |  |  |  | 
CCn1c(-c2cccnc2[C@H](C)OC)c2c3cc(ccc31)-c1cc(O)cc(c1)C[C@H](NC(=O)[C@H](C1CCCC1)N(C)C(=O)CN(C)C(=O)[C@H]1CN1)C(=O)N1CCC[C@H](N1)C(=O)OCC(C)(C)C2 [Example 95] | < 10 | 10 to 100 | 10 to 100 | 10 to 100 | 10 to 100 | 10 to 100 | 10 to 100 | < 10 | 10 to 100 | < 10 | < 5000 |  |  |  | 
CCn1c(-c2cccnc2[C@H](C)OC)c2c3cc(ccc31)-c1cc(O)cc(c1)C[C@H](NC(=O)[C@H](C(C)C)N(C)C(=O)[C@H](C)N(C)C(=O)[C@H]1CN1)C(=O)N1CCC[C@H](N1)C(=O)OCC(C)(C)C2 [Example 102] | 10 to 100 | 100 to 1000 | 100 to 1000 | 10 to 100 | 10 to 100 | 100 to 1000 | 100 to 1000 | 10 to 100 | 100 to 1000 | 10 to 100 | < 5000 |  |  |  | 
CCn1c(-c2cccnc2[C@H](C)OC)c2c3cc(ccc31)-c1cccc(c1)C[C@H](NC(=O)[C@H](C(C)C)N(C)C(=O)[C@H]1CCN(C(=O)[C@H]3CN3)C1)C(=O)N1CCC[C@H](N1)C(=O)OCC(C)(C)C2 [Example 106] |  |  |  |  |  |  |  |  |  |  |  | < 10 | 1000 to 10000 | < 5000 | IC50 (KRAS G13D; [15]): 1000 to 10000 nM; IC50 (KRAS WT; [16]): 1000 to 10000 nM; IC50 (KRAS G13C; [17]): 100 to 1000 nM; IC50 (KRAS G12D; [18]): 1000 to 10000 nM; IC50 (KRAS G12S; [19]): 1000 to 10000 nM; IC50 (NRAS G12C; [20]): 10 to 100 nM; IC50 (KRAS G12V; [21]): 1000 to 10000 nM; IC50 (KRAS G12C; [22]): 10 to 100 nM
CCn1c(-c2cccnc2[C@H](C)OC)c2c3cc(ccc31)-c1cccc(c1)C[C@H](NC(=O)[C@H](C(C)C)N(C)C(=O)CN(C)C(=O)[C@H]1CN1)C(=O)N1CCC[C@H](N1)C(=O)OCC(C)(C)C2 [Example 107] | 100 to 1000 | 1000 to 10000 | 1000 to 10000 | 1000 to 10000 | 100 to 1000 | 1000 to 10000 | 1000 to 10000 | 100 to 1000 | 1000 to 10000 | 100 to 1000 | < 5000 |  |  |  | 
CCn1c(-c2cccnc2[C@H](C)OC)c2c3cc(ccc31)-c1cc(O)cc(c1)C[C@H](NC(=O)[C@H](C(C)C)N(C)C(=O)CN(C)C(=O)[C@@H]1N[C@@H]1C1CC1)C(=O)N1CCC[C@H](N1)C(=O)OCC(C)(C)C2 [Example 133] | 10 to 100 | 10 to 100 | 10 to 100 | 10 to 100 | 10 to 100 | 10 to 100 | 10 to 100 | 10 to 100 | 10 to 100 | 10 to 100 | < 5000 |  |  |  | 
CCn1c(-c2cccnc2[C@H](C)OC)c2c3cc(ccc31)-c1cc(O)cc(c1)C[C@H](NC(=O)[C@H](C(C)C)N(C)C(=O)[C@@H]1CO[C@H](C)CN1C(=O)[C@@H]1CN1)C(=O)N1CCC[C@H](N1)C(=O)OCC(C)(C)C2 [Example 249] |  |  |  |  |  |  |  |  |  |  |  | 10 to 100 | 10 to 100 | < 5000 | 
